Test results published in ChEMBL document CHEMBL5523697, “Colony Stimulating Factor-1 Receptor: An emerging target for neuroinflammation PET imaging and AD therapy” (Bioorg Med Chem, 2024).
Values belong to the molecule of their own block, whether it stands above or below them.

How the values were obtained:
[1] = target: T1, Macrophage colony-stimulating factor 1 receptor (Homo sapiens, UniProt P07333)
[2] = target: T1, Macrophage colony-stimulating factor 1 receptor; remark: listed apart in the source
physchem [3] = details: buffer, pH 7.4
[4] = target: T1, Macrophage colony-stimulating factor 1 receptor; remark: listed apart in the source
in vivo [5] = details: mouse, brain
in vivo [6] = details: mouse, brain, iv, 5 mg/kg
in vivo [7] = details: mouse, brain, iv, 5 mg/kg; remark: listed apart in the source
in vivo [8] = details: mouse, brain, iv, 5 mg/kg; remark: listed apart in the source
physchem [9] = details: octanol/water

T1 sequence (P07333 whole entry): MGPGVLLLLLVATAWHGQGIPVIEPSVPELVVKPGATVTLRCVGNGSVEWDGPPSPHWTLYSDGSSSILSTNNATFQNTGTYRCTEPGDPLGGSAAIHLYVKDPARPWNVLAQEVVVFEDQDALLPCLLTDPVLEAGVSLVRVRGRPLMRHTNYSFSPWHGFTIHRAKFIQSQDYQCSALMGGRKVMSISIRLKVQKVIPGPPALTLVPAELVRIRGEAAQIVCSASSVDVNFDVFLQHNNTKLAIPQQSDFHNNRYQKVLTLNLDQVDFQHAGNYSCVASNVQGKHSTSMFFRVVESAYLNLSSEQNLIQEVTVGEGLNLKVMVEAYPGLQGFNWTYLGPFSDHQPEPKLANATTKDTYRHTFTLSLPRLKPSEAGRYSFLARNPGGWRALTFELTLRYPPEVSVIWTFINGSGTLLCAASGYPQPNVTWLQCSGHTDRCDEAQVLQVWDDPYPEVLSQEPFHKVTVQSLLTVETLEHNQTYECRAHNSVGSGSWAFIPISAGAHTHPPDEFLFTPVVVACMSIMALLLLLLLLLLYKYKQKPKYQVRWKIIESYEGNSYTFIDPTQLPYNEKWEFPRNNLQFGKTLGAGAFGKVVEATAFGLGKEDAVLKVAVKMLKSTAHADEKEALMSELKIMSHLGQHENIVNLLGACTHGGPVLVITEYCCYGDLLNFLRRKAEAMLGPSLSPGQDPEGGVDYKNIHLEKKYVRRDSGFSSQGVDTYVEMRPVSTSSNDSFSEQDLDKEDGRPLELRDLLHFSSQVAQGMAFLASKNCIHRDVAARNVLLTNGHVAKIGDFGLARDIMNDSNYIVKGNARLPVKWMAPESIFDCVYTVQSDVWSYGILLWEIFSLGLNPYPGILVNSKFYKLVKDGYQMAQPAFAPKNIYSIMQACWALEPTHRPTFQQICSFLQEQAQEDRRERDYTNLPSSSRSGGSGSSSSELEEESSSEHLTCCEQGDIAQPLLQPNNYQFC

Structure (SMILES): CCOc1cc2ncc(C(N)=O)c(Nc3ccc(F)cc3F)c2cc1N1CCN(C)CC1
Ki [1]: 8 nM

Structure (SMILES): CCOc1cc2ncc(C(N)=O)c(Nc3ccc(F)cc3F)c2cc1N1CCN([11CH3])CC1
IC50 [4]: 6 nM

Other lines, results leading:

Kd [2]: 15.7 nM | logD (physchem [3]): 3.67
Structure (SMILES): CNC(=O)c1cc(Oc2ccc3nc(N(C)[C@@H]4CCCC[C@H]4O)sc3c2)ccn1

tissue uptake at 1 h (in vivo [5]): 1.18 %ID/g | tissue uptake at 0.25 h (in vivo [6]): 1.35 %ID/g | tissue uptake at 5 min (in vivo [7]): 2 %ID/g | tissue uptake at 1 h (in vivo [8]): 1.3 %ID/g | logD (physchem [9]): 2.26
Structure (SMILES): [11CH3]NC(=O)c1cc(Oc2ccc3nc(N[C@@H]4CCCC[C@H]4O)sc3c2)ccn1

Kd [2]: 26 nM | logD (physchem [3]): 3.38
Structure (SMILES): CNC(=O)c1cc(Oc2ccc3nc(N([11CH3])[C@@H]4CCCC[C@H]4O)sc3c2)ccn1
